Reference: US20030092686A1, “Method of determining the initial dose of vitamin D compounds” (priority 2000, published 2003)

Tested on: adult ESRD patients
Assay: Double-blind, randomized, 12-week trial of starting dose of paricalcitol injection (baseline PTH/80 vs 0.04 mcg/kg)
Type: in vivo, human
Details: for Incidences of Ca × P > 75: 2 consecutive occurrences of CaxP>75; for Median Number of Dose Adjustments: adjustments to achieve the first of 4 consecutive ≧30% decreases from baseline PTH; for Incidence(s) of Hypercalcemia: single episode, Ca>11.5 miligram/deciliter, 3x weekly, 12-week trial; for Median Days to First of 4 ≧ 30% PTH Decreases: statistically significant (P = 0.0306)
Experimental: A double-blind, randomized, 12-week trial was conducted in 125 adult ESRD patients to determine if a starting dose of paricalcitol injection using baseline PTH/80 was equivalent in the rate of hypercalcemia (single episode, Ca>11.5 miligram/deciliter) compared to the approved initial dose (0.04 mcg/kg, dry weight). Patients were randomized (1:1) to doses by either PTH/80 or 0.04 mcg/kg. Baseline demographics and laboratory values were similar between groups. Dosing occurred 3×weekly per patient hemodialysis schedule. Dose increases of 2 mcg could occur once per 2 weeks; decreases of 2 mcg could occur once per week. Patients completed the study by reducing PTH≧30% from baseline for 4 consecutive weekly measurements, or by having a single incidence of hypercalcemia, or by completing 12 weeks of treatment. The primary analysis was a comparison of the incidence of hypercalcemia between groups. Secondary analyses included the time in days to the first of 4 consecutive≧30% decreases from baseline PTH levels, the difference in the number of dose adjustments to achieve the first of 4 consecutive≧30% decreases from baseline PTH levels, and the difference in the incidence rates of 2 consecutive occurrences of CaxP>75.

[1] = initial dose 0.04 mcg/kg dry weight

C[C@H](/C=C/[C@H](C)C(C)(C)O)[C@H]1CC[C@H]2/C(=C/C=C3C[C@@H](O)C[C@H](O)C3)CCC[C@]12C [paricalcitol injection, Paricalcitol]
Mean PTH Decrease (SE) [1]: −193 (24.59) pg/mL
Incidences of Ca × P > 75 [1]: 2
Median Number of Dose Adjustments [1]: 3
Incidence(s) of Hypercalcemia [1]: 0
Median Days to First of 4 ≧ 30% PTH Decreases [1]: 45 days
Mean PTH Decrease (SE) (initial dose baseline PTH/80): −259 (24.01) pg/mL
Incidences of Ca × P > 75 (initial dose baseline PTH/80): 5
Median Number of Dose Adjustments (initial dose baseline PTH/80): 2
Incidence(s) of Hypercalcemia (initial dose baseline PTH/80): 0
Median Days to First of 4 ≧ 30% PTH Decreases (initial dose baseline PTH/80): 31 days
